{"source": "ChEMBL document CHEMBL4387714", "about": "“Four N-(E)-cinnamoyl (cinnamamide) derivatives of aminoalkanols with promising anticonvulsant and analgesic activity” (Bioorg Med Chem Lett, 2019)", "key": {"Mus musculus [1]": {"test_system": "Mus musculus", "test": "Anticonvulsant activity in albino CF1 mouse model of metrazol-induced seizures assessed as metrazol dose causing first twitch at 43 mg/kg, ip administered 0.25 hrs prior to MTZ challenge (reference value: 27.9 +/- 1.2 mg/kg)", "type": "functional"}, "Mus musculus [2]": {"test_system": "Mus musculus", "test": "Anticonvulsant activity in albino CF1 mouse model of metrazol-induced seizures assessed as time to twitch at 43 mg/kg, ip administered 0.25 hrs prior to MTZ challenge (reference value: 26.1 +/- 1.2 s)", "type": "functional"}, "Mus musculus [3]": {"test_system": "Mus musculus", "test": "Anticonvulsant activity in albino CF1 mouse model of metrazol-induced seizures assessed as time to twitch at 150 mg/kg, ip administered 0.25 hrs prior to MTZ challenge (reference value: 26.1 +/- 1.2 s)", "type": "functional"}, "Mus musculus [4]": {"test_system": "Mus musculus", "test": "Analgesic activity in formalin-induced albino CF1 mouse model of hyperalgesia assessed as time spent in paw licking during inflammatory phase at 43 mg/kg, ip administered 0.25 hrs prior to formalin challenge measured first 2 mins of five minutes test for 10 to 40 mins by formalin test relative to control", "type": "functional"}, "Mus musculus [5]": {"test_system": "Mus musculus", "test": "Analgesic activity in formalin-induced albino CF1 mouse model of hyperalgesia assessed as time spent in paw licking during acute phase at 43 mg/kg, ip administered 0.25 hrs prior to formalin challenge measured first 2 mins of five minutes test for 10 mins by formalin test relative to control", "type": "functional"}, "Mus musculus [6]": {"test_system": "Mus musculus", "test": "Neuroprotective activity against controlled cortical impact-induced C57Bl/6 acute mouse model of traumatic brain injury assessed as lesion volume at 43 mg/kg, ip administered twice daily for 3 days starting from 0.5 hrs post controlled cortical impact challenge measured post-last dose by naurotrace 435/455 staining-based fluorescent microscopy (reference value: 11.9 +/- 0.7 mm3)", "type": "functional"}, "Brain [7]": {"test_system": "Brain", "test": "(§1) In vitro anticonvulsant activity in kainic acid-induced albino Sprague Dawley rat brain assessed as blockade of ACSF-stimulated spontaneous electrographic seizure-like activity in medial entorhinal cortex hippocampal brain slices by measuring burst duration at 100 uM measured after 20 mins relative to control", "type": "functional"}, "Mus musculus [8]": {"test_system": "Mus musculus", "test": "Anticonvulsant activity in albino CF1 mouse assessed as metrazol dose causing first clonus at 150 mg/kg, ip administered 0.25 hrs prior to MTZ challenge (reference value: 31.1 +/- 1.4 mg/kg)", "type": "functional"}, "Mus musculus [9]": {"test_system": "Mus musculus", "test": "Anticonvulsant activity in albino CF1 mouse assessed as metrazol dose causing first clonus at 43 mg/kg, ip administered 0.25 hrs prior to MTZ challenge (reference value: 31.1 +/- 1.4 mg/kg)", "type": "functional"}, "Mus musculus [10]": {"test_system": "Mus musculus", "test": "Anticonvulsant activity in albino CF1 mouse model of metrazol-induced seizures assessed as metrazol dose causing first twitch at 150 mg/kg, ip administered 0.25 hrs prior to MTZ challenge (reference value: 27.9 +/- 1.2 mg/kg)", "type": "functional"}, "Mus musculus [11]": {"test_system": "Mus musculus", "test": "Anticonvulsant activity in albino CF1 mouse assessed as time to clonus at 150 mg/kg, ip administered 0.25 hrs prior to MTZ challenge (reference value: 29 +/- 1.5 s)", "type": "functional"}, "Mus musculus [12]": {"test_system": "Mus musculus", "test": "Anticonvulsant activity in albino CF1 mouse assessed as time to clonus at 43 mg/kg, ip administered 0.25 hrs prior to MTZ challenge (reference value: 29 +/- 1.5 s)", "type": "functional"}, "[13]": {"test": "Toxicity in albino CF1 mouse assessed as body weight at 43 mg/kg, ip measured at 0.25 hrs (reference value: 26.4 +/- 0.4 g)", "type": "organism-based", "conditions": "in vivo"}, "[14]": {"test": "Toxicity in albino CF1 mouse assessed as body weight at 150 mg/kg, ip measured at 0.25 hrs (reference value: 26.4 +/- 0.4 g)", "type": "organism-based", "conditions": "in vivo"}, "Mus musculus [15]": {"test_system": "Mus musculus", "test": "Anticonvulsant activity in ip dosed 60-Hz corneal stimulation-induced full kindling albino CF1 mouse model of epilepsy assessed as reduction in seizure score treated 0.25 hrs prior to 60-Hz corneal stimulation", "type": "functional"}, "Mus musculus [16]": {"test_system": "Mus musculus", "test": "Anticonvulsant activity in 60-Hz corneal stimulation-induced full kindling albino CF1 mouse model of epilepsy assessed as reduction in seizure score at 20 mg/kg, ip administered 0.25 hrs prior to 60-Hz corneal stimulation", "type": "functional, organism-based"}, "Mus musculus [17]": {"test_system": "Mus musculus", "test": "Anticonvulsant activity in 60-Hz corneal stimulation-induced full kindling albino CF1 mouse model of epilepsy assessed as reduction in seizure score at 60 mg/kg, ip administered 0.25 hrs prior to 60-Hz corneal stimulation", "type": "functional, organism-based"}, "Mus musculus [18]": {"test_system": "Mus musculus", "test": "Anticonvulsant activity in 60-Hz corneal stimulation-induced full kindling albino CF1 mouse model of epilepsy assessed as reduction in seizure score at 86 mg/kg, ip administered 0.25 hrs prior to 60-Hz corneal stimulation", "type": "functional, organism-based"}, "Brain [19]": {"test_system": "Brain", "test": "as §1, with “rate” for “duration”", "type": "functional"}, "Rattus norvegicus [20]": {"test_system": "Rattus norvegicus", "test": "Antiallodynic activity in albino Sprague-Dawley rat model of sciatic nerve ligation-induced neuropathic pain assessed as increase in paw withdrawal threshold at 50 mg/kg, po measured after 1 hr by Von Frey test relative to control", "type": "functional"}, "Rattus norvegicus [21]": {"test_system": "Rattus norvegicus", "test": "Antiallodynic activity in albino Sprague-Dawley rat model of sciatic nerve ligation-induced neuropathic pain assessed as increase in paw withdrawal threshold at 50 mg/kg, po measured after 2 hrs by Von Frey test relative to control", "type": "functional"}, "Rattus norvegicus [22]": {"test_system": "Rattus norvegicus", "test": "Antiallodynic activity in albino Sprague-Dawley rat model of sciatic nerve ligation-induced neuropathic pain assessed as increase in paw withdrawal threshold at 50 mg/kg, po measured after 4 hrs by Von Frey test relative to control", "type": "functional"}, "Rattus norvegicus [23]": {"test_system": "Rattus norvegicus", "test": "Antiallodynic activity in albino Sprague-Dawley rat model of sciatic nerve ligation-induced neuropathic pain assessed as increase in paw withdrawal threshold at 50 mg/kg, po measured after 6 hrs by Von Frey test relative to control", "type": "functional"}, "Rattus norvegicus [24]": {"test_system": "Rattus norvegicus", "test": "Antiallodynic activity in albino Sprague-Dawley rat model of sciatic nerve ligation-induced neuropathic pain assessed as time required to show maximum increase in paw withdrawal threshold at 50 mg/kg, po Von Frey test", "type": "functional"}, "Mus musculus [25]": {"test_system": "Mus musculus", "test": "Analgesic activity in formalin-induced albino CF1 mouse model of hyperalgesia assessed as time spent in paw licking during acute phase at 186 mg/kg, ip administered 0.25 hrs prior to formalin challenge measured first 2 mins of five minutes test for 10 mins by formalin test relative to control", "type": "functional"}, "Mus musculus [26]": {"test_system": "Mus musculus", "test": "Analgesic activity in formalin-induced albino CF1 mouse model of hyperalgesia assessed as time spent in paw licking during inflammatory phase at 186 mg/kg, ip administered 0.25 hrs prior to formalin challenge measured first 2 mins of five minutes test for 10 mins by formalin test relative to control", "type": "functional"}}, "note": "Active and inactive are the calls of the source."}
{"compound": "Cc1ccccc1/C=C/C(=O)N[C@@H](C)CO", "values": [{"measurement": "Activity", "setting": "Mus musculus [1]", "result": 53.4, "unit": "mg/kg"}, {"measurement": "Time", "setting": "Mus musculus [2]", "result": 48.2, "unit": "s"}, {"measurement": "Time", "setting": "Mus musculus [3]", "result": 87.3, "unit": "s"}, {"measurement": "Activity", "setting": "Mus musculus [4]", "result": 84.29, "unit": "%"}, {"measurement": "Activity", "setting": "Mus musculus [5]", "result": 34.23, "unit": "%"}, {"measurement": "Activity", "setting": "Mus musculus [6]", "result": 11.09, "unit": "mm3"}, {"measurement": "Activity", "setting": "Brain [7]", "result": 82, "unit": "%"}, {"measurement": "Activity", "setting": "Mus musculus [8]", "result": 96.3, "unit": "mg/kg"}, {"measurement": "Activity", "setting": "Mus musculus [9]", "result": 74.6, "unit": "mg/kg"}, {"measurement": "Activity", "setting": "Mus musculus [10]", "result": 93.5, "unit": "mg/kg"}, {"measurement": "Time", "setting": "Mus musculus [11]", "result": 90, "unit": "s"}, {"measurement": "Time", "setting": "Mus musculus [12]", "result": 67.2, "unit": "s"}, {"measurement": "Activity", "setting": "[13]", "result": 25.6, "unit": "g"}, {"measurement": "Activity", "setting": "[14]", "result": 26.5, "unit": "g"}, {"measurement": "ED50", "setting": "Mus musculus [15]", "result": 36.8, "unit": "mg/kg"}, {"measurement": "Activity", "setting": "Mus musculus [16]", "result": "inactive"}, {"measurement": "Activity", "setting": "Mus musculus [17]", "result": "Active"}, {"measurement": "Activity", "setting": "Mus musculus [18]", "result": "Active"}, {"measurement": "Activity", "setting": "Brain [19]", "result": 106, "unit": "%"}, {"measurement": "Activity", "setting": "Rattus norvegicus [20]", "result": 233, "unit": "%"}, {"measurement": "Activity", "setting": "Rattus norvegicus [21]", "result": 254, "unit": "%"}, {"measurement": "Activity", "setting": "Rattus norvegicus [22]", "result": 249, "unit": "%"}, {"measurement": "Activity", "setting": "Rattus norvegicus [23]", "result": 237, "unit": "%"}, {"measurement": "Time", "setting": "Rattus norvegicus [24]", "result": 2, "unit": "h"}]}
{"compound": "O=C(/C=C/c1ccc(Cl)cc1)N[C@H]1CC[C@H](O)CC1", "values": [{"measurement": "Activity", "setting": "Mus musculus [25]", "result": 21.89, "unit": "%"}, {"measurement": "Activity", "setting": "Mus musculus [26]", "result": 0, "unit": "%"}]}
